In one assay the target is T1, GRPR (Homo sapiens, UniProt P30550).
T1 construct: HA; expressed in transfected cells; host or cells: HEK293
The experiment in a line: Intracellular calcium assay. The assay is classed as cell-based. The conditions noted are these: 10 nM peptide, HEK293, Fluo8, GRPR. How it is done: Intracellular calcium was measured using the non-wash calcium assay Fluo8 kit (ab112129, Abcam) according to the manufacturer’s instructions. Briefly, HEK293 cells were seeded in 24-well plates and were transfected with GRPR, NMBR, BRS3, or the empty vector plasmid pcDNA3.1-V5-His (300 ng) and incubated overnight at 37°C with 5% CO2. The next day, the cells were replated into a 96-well assay plate (black plate and clear bottom). After 12 h, growth media were aspirated, and calcium dye was added. […] The basal fluorescence intensity was recorded 15 times at 1 Hz for […]. The results were normalized to the average basal fluorescence intensity in ratio, and the peak response was used for the result calculation. Calcium fold was calculated using no stimulation data as standard value.
In general terms: Calcium assays in cells follow changes in intracellular calcium, usually with a dye or a luminescent sensor.

The target in a further assay is T2, NMBR (Homo sapiens, UniProt P28336).
T2 construct: HA; expressed in transfected cells; host or cells: HEK293
T2 sequence (P28336 whole entry, species assumed): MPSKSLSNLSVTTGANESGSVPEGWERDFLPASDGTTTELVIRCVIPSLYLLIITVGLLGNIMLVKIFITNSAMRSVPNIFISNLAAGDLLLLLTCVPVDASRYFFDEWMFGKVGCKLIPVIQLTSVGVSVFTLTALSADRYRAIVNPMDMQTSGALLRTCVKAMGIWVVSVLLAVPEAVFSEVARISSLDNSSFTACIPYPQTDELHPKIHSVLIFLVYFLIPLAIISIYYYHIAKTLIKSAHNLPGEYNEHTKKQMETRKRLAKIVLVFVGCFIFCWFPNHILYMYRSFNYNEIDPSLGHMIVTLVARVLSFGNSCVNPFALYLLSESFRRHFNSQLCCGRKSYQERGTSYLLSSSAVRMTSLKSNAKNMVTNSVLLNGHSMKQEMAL
The experiment in a line: Radioligand binding (competition). The conditions noted are these: [125I]-Tyr-NMB. How it is done: HEK293 cells were seeded in a 10-cm tissue culture dish at a density of 10^6 cells per dish and grown overnight at 37°C in growth medium. The following morning, 5 μg of different species’ BRS3 plasmids were transfected. After 6 h, the medium was replaced with growth medium. Cells were maintained at 37°C in a 5% CO2 atmosphere and used 48 h later for binding assays. The positive control group included transfected GRPR and NMBR; the test group consisted of transfected BRS3 from different species. […] The cell concentration was adjusted to between 0.05 and 4 × 10^6 cells/ml for each receptor such that less than 20% of the total added radioactive ligand was bound during the incubation, and the results were compared to cells transfected with GRPR or NMBR adjusted in concentration to bind a similar amount of ligand. After the incubation, 100 μl aliquots were added to 1.5-ml microfuge tubes, which contained 100 μl of binding buffer to determine the total radioactivity. […] The amount of radioactivity bound to the cells was measured in a Cobra II Gamma counter (Packard Instruments). Binding was expressed as the percentage of total radioactivity that was associated with the cell pellet. […] Each point was measured in duplicate, and each experiment was replicated at least four times. […] All the experiment data were calculated using 1 pM ligand-treated as 100% control.

T1 sequence (P30550 whole entry, species assumed): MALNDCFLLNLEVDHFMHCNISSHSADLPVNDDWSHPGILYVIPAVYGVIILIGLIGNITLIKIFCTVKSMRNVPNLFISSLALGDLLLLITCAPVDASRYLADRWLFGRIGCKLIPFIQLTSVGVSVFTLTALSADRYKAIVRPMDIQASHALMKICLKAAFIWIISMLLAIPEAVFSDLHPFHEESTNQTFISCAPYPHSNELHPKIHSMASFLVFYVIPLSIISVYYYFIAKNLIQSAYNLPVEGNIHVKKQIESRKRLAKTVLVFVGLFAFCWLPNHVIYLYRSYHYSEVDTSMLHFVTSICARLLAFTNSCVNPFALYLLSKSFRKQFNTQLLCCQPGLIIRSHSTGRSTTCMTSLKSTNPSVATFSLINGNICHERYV

Regarding “GSHWAVGHLM-NH2 [GRP, gastrin-releasing peptide]”, the Calcium fold on GRPR (replicate 1) is 5.512 fold; at GRPR (replicate 2) it was 5.7711 fold; at GRPR (replicate 3) it was 5.9191 fold. The “Inhibition of NMBR–NMB binding (in words)” value at NMBR is “cannot inhibit”.

The record behind these values is paper PMC6422423, “Constitutively active BRS3 is a genuinely orphan GPCR in placental mammals” (PLoS Biology, 2019).
